Assay results published in patent US12195427B2, “MASP-2 inhibitors and methods of use” (priority 2018, dated 2025).

Target: MASP-2 CCP2-SP (Homo sapiens (Human), UniProt O00187)
Test: MASP-2 co-crystallization, X-ray crystallography and structure analysis (H-bonds, van der Waals contacts);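 as to Ligand-pharmacophore element distance, pharmacophore element C2: distance from averaged pharmacophore element to bound ligand; missing value means element absent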;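 as to Ligand-pharmacophore element distance, pharmacophore element C3: distance from averaged pharmacophore element to bound ligand; missing value means element absent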;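 as to Ligand-pharmacophore element distance, pharmacophore element C4: distance from averaged pharmacophore element to bound ligand; missing value means element absent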;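 as to Ligand-pharmacophore element distance, pharmacophore element C5: distance from averaged pharmacophore element to bound ligand; missing value means element absent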
Set-up: van der Waals contact distance, MASP-2 HIS 483 atom CD2 / van der Waals contact distance, MASP-2 HIS 483 atom NE2 / van der Waals contact distance, SER 654 C to compound atom / van der Waals contact distance, SER 654 O to compound atom / van der Waals contact distance, TRP 655 C to compound atom / van der Waals contact distance, MASP-2 GLY 528 atom CA / van der Waals contact distance TRP 655 atom CZ3 / van der Waals contact distance TRP 655 atom N / van der Waals contact distance TRP 655 atom CE3 / van der Waals contact distance GLY 656 atom C / van der Waals contact distance GLY 656 atom CA / van der Waals contact distance GLY 656 atom O / van der Waals contact distance, MASP-2 TYR 607 atom CD1 / van der Waals contact distance, MASP-2 PRO 606 atom O / d(C3,CA1) / d(CA1,N1)2 / d(H4,O1) / d(H4,O2) / d(O1,O2) / d(CA1,O2) / d(CA6,O1) / d(CA6,O2) / d(CA1,C5) / d(O2,H3) / d(N2,C2) / d(CA5,N2) / d(N2,C4) / d(N2,C6) / d(N2,CA3) / d(N2,O3) / d(O4,H2): unit not given beside the values
Details: for Ligand-pharmacophore element distance, pharmacophore element C2 / Ligand-pharmacophore element distance, pharmacophore element C3 / Ligand-pharmacophore element distance, pharmacophore element C4 / Ligand-pharmacophore element distance, pharmacophore element C5 / Ligand-pharmacophore element distance, pharmacophore element C6 / Ligand-pharmacophore element distance, pharmacophore element C7 / Ligand-pharmacophore element distance, pharmacophore element CA1 / Ligand-pharmacophore element distance, pharmacophore element CA2 / Ligand-pharmacophore element distance, pharmacophore element CA3 / Ligand-pharmacophore element distance, pharmacophore element CA4 / Ligand-pharmacophore element distance, pharmacophore element CA5 / Ligand-pharmacophore element distance, pharmacophore element CA6: Table A4-1; for Pharmacophore torsion angle a(O1, O2, N2, CA2): Table A7-2
Outline: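 Soaked crystals of recombinant CCP2-SP (E. coli) yield the structures, phased by molecular replacement on 1Q3X pieces. Hydrophobic or nonbonded contacts can also cover atom pairs that are potential hydrogen bonds.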

[1] = Table A5-1 pharmacophore: distance between elements, S2/S1 region
[2] = Table A5-2 pharmacophore distance, S3/S4 region
[3] = Table A7-1, between pharmacophore elements of the bound compound
[4] = between pharmacophore elements of the bound compound

MASP-2 CCP2-SP, sequence (O00187 445-686): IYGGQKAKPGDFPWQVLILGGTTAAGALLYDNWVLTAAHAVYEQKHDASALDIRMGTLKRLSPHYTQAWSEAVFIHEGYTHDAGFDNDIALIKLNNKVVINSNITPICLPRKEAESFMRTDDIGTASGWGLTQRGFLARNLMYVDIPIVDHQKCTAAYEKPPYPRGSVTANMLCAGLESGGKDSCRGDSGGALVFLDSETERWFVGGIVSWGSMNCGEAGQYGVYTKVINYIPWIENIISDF
MASP-2 CCP2-SP, sequence (O00187 364-432 partner): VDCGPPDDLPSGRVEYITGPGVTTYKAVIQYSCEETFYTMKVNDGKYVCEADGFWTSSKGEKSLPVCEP

| Compound | Ligand-pharmacophore element distance, pharmacophore element C2 | Ligand-pharmacophore element distance, pharmacophore element C3 | Ligand-pharmacophore element distance, pharmacophore element C4 | Ligand-pharmacophore element distance, pharmacophore element C5 | Ligand-pharmacophore element distance, pharmacophore element C6 | Ligand-pharmacophore element distance, pharmacophore element C7 | Ligand-pharmacophore element distance, pharmacophore element CA1 | Ligand-pharmacophore element distance, pharmacophore element CA2 | Ligand-pharmacophore element distance, pharmacophore element CA3 | Ligand-pharmacophore element distance, pharmacophore element CA4 | Ligand-pharmacophore element distance, pharmacophore element CA5 | Ligand-pharmacophore element distance, pharmacophore element CA6 | d(CA1,O1) [1] | d(CA1,O2) [1] | d(H4,O1) [1] | d(H4,O2) [1] | d(O1,O2) [1] | d(N2,CA2) [2] | d(O2,H3) [2] | d(O2,N2) [2] | other results |
| --- | --- | --- | --- | --- | --- | --- | --- | --- | --- | --- | --- | --- | --- | --- | --- | --- | --- | --- | --- | --- | --- |
| C[C@H](NC(=O)[C@H]1C[C@@H](c2ccccc2)CCN1)C(=O)NCc1cc(Cl)ccc1O [compound 1078] |  |  |  |  |  |  |  |  |  |  |  |  |  |  |  |  |  |  |  |  | H-bond distance to MASP-2 ARG 630 atom NH1 (second bond) (Table A1 (H-Bonds), ARG 630 NH1): 3.25; H-bond distance to MASP-2 ARG 630 atom NH1 (Table A1 (H-Bonds), ARG 630 NH1, first column): 2.92; H-bond distance to MASP-2 GLY 656 atom N (Table A1 (H-Bonds), GLY 656 N): 3.14; H-bond distance to MASP-2 SER 654 atom O (Table A1 (H-Bonds), SER 654 O): 2.66; van der Waals contact distance, MASP-2 HIS 483 atom CD2 (Table A2-1): 3.35; van der Waals contact distance, MASP-2 HIS 483 atom NE2 (Table A2-1): 3.28; van der Waals contact distance, MASP-2 amino acid atom to compound atom (Table A2-9, ARG 630, AA atoms CG, CZ): 3.78; van der Waals contact distance, VAL 653 CG1 to compound atom (Table A2-11): 3.49 |
| Cc1nc(N)ccc1CNC(=O)[C@H](C)NC(=O)[C@H]1C[C@H](Cc2cccc(Cl)c2)CN1.Cl.Cl [1328_2] | 0 | 0.15 | 1.28 | 0 | 0 | 0 | 0.41 | 0.43 | 0 | 0 | 0 | 0 | 4.43 | 4.01 | 4.38 | 3.84 | 3.08 | 5.92 | 4.54 | 2.75 | d(C3,CA1) [1]: 2.85; d(CA1,N1)2 [1]: 1.38; d(N2,C4) [2]: 7.87; d(N2,C4)4 [2]: 7.87; a(C3, CA1, O1) (Table A6-1 pharmacophore angle): 150.10; a(CA1, O1, O2) (Table A6-1 pharmacophore angle): 103.89; a(O1, O2, H4) (Table A6-1 pharmacophore angle): 136.71; a(N1, CA1, O1) b) (Table A6-1 pharmacophore angle, Methyl-amino-pyridine compounds): 173.89; a(O1, O2, H3) (Table A6-2 pharmacophore angle): 149.68; a(O1, O2, N2) (Table A6-2 pharmacophore angle): 139.05; a(O2, N2, C4) (Table A6-2 pharmacophore angle): 160.74; a(O2, N2, C4) 2 (Table A6-2 pharmacophore angle): 109.44; a(O2, N2, CA2) (Table A6-2 pharmacophore angle): 154.85; Pharmacophore torsion angle a(C3, CA1, O1, H4) [3]: 21.76; Pharmacophore torsion angle a(H4, O1, O2, H3) [3]: 51.26; Pharmacophore torsion angle a(H4, O1, O2, N2) [3]: 134.72; Pharmacophore torsion angle a(N1, CA1, O1, H4) [3]: −4.36; Pharmacophore torsion angle a(O1, H4, O2, CA1) [3]: −83.32; Pharmacophore torsion angle a(O1, O2, N2, CA2) [4]: 132.29 |
| C[C@H](NC(=O)[C@H]1C[C@H](Cc2ccccc2)CN1)C(=O)NCc1ccc(C(=N)N)cc1.Cl.Cl [1306_2] | 0 | 0 | 0 | 0 | 0 | 0 | 0.74 | 1.14 | 0 | 0 | 0 | 0 | 3.99 | 4.29 | 6.07 | 5.71 | 2.68 | 6.15 | 4.46 | 2.71 | d(CA1,N1) [1]: 3.60; a(CA1, O1, O2) (Table A6-1 pharmacophore angle): 114.80; a(O1, O2, H4) (Table A6-1 pharmacophore angle): 153.92; A(N1, CA1, O1) a) (Table A6-1 pharmacophore angle, all compounds with protonatable center N1 except Methyl-amino-pyridine): 161.00; a(O1, O2, H3) (Table A6-2 pharmacophore angle): 151.24; a(O1, O2, N2) (Table A6-2 pharmacophore angle): 153.80; a(O2, N2, CA2) (Table A6-2 pharmacophore angle): 158.08; Pharmacophore torsion angle a(H4, O1, O2, H3) [3]: 40.51; Pharmacophore torsion angle a(H4, O1, O2, N2) [3]: 134.08; Pharmacophore torsion angle a(N1, CA1, O2, H4) [3]: −77.87; Pharmacophore torsion angle a(O1, H4, O2, CA1) [3]: −12.97; Pharmacophore torsion angle a(O1, O2, N2, CA2) [4]: 124.98 |
